Experimental data: patent US9580449B2, “Compositions and methods for the production of pyrimidine and pyridine compounds with BTK inhibitory activity” (Merck Patent GmbH, priority 2011, dated 2017)

target: full-length human BTK (Homo sapiens (Human), UniProt Q06187); assay: BTK IC50 enzyme assay (microfluidic off-chip mobility shift kinase assay); type: biochemical; conditions: incubated for 90 min. at 27 C; read-out: Time Dependent BTK Enzyme Assay IC50
Procedure, shortened: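 Off-chip microfluidic mobility shift assay on full-length human BTK; substrate-to-product conversion measured by charge/mass separation of phosphorylated peptide after reaction stop.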

full-length human BTK, sequence (Q06187 whole entry): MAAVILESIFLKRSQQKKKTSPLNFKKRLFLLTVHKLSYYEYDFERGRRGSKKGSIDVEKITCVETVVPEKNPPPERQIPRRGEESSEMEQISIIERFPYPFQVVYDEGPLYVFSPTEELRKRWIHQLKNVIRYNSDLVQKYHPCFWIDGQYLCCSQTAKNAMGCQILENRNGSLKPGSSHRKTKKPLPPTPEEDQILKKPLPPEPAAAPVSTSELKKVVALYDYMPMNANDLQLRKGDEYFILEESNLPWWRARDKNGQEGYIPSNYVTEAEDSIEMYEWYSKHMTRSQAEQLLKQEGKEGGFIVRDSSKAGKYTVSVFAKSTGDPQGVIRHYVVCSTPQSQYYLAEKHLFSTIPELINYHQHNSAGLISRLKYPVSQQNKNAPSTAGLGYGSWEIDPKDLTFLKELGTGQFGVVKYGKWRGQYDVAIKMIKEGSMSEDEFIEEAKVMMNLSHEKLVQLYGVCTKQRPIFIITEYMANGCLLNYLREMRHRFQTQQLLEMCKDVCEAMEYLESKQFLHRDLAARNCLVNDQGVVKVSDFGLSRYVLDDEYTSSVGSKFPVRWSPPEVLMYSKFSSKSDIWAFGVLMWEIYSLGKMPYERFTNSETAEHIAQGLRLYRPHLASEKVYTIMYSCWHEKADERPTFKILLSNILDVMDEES

Row | Compound | IC50 [nM]
1 | C=CC(=O)N[C@H]1C[C@H](O)C[C@@H](Nc2ncnc(N)c2-c2ccc(Oc3ccccc3)cc2)C1 (racemic) [A188, N-((1R,3S,5R)-3-((6-amino-5-(4-phenoxyphenyl)pyrimidin-4-yl)amino)-5-hydroxycyclohexyl)acrylamide] | < 1000
2 | CC#CC(=O)[C@H]1CCC[C@H](Nc2ncnc(N)c2-c2ccc(Oc3ccccc3)cc2)C1 [A145, 1-((1S,3S)-3-(6-Amino-5-(4-phenoxyphenyl)-pyrimidin-4-ylamino)-cyclohexyl)-but-2-yn-1-one] | < 100
3 | C=CC(=O)N1CC(Nc2ncnc(N)c2-c2ccc(Oc3ccccc3)cc2)C1 [A185, 1-(3-((6-amino-5-(4-phenoxyphenyl)pyrimidin-4-yl)amino)azetidin-1-yl)prop-2-en-1-one] | < 100
4 | CN(C)C/C=C/C(=O)Nc1cccc(Oc2ccnc(N)c2-c2ccc(OCc3ccccc3)cc2)c1 [A152, (E)-N-(3-((2-amino-3-(4-(benzyloxy)phenyl)pyridin-4-yl)oxy)phenyl)-4-(dimethylamino)but-2-enamide] | < 1000
5 | C=CC(=O)Nc1cccc(Oc2ccnc(N)c2-c2ccc(Oc3ccccc3)cc2)c1 [A244, N-(3-((2-amino-3-(4-phenoxyphenyl)pyridin-4-yl)oxy)phenyl)acrylamide] | < 100
6 | C=CC(=O)Nc1cccc(Oc2nc(N)ncc2-c2ccc(Oc3ccccc3)cc2)c1 [A271, N-(3-((2-amino-5-(4-phenoxyphenyl)pyrimidin-4-yl)oxy)phenyl)acrylamide] | < 100
7 | C=CC(=O)Nc1cccc(Oc2ncnc(N)c2-c2cnn(Cc3cccc(C(F)(F)F)c3)c2)c1 [A195, N-(3-((6-amino-5-(1-(3-(trifluoromethyl)benzyl)-1H-pyrazol-4-yl)pyrimidin-4-yl)oxy)phenyl)acrylamide] | < 100
8 | Nc1ncnc(Oc2cccc(N3CC=CC3=O)c2)c1-c1ccc(Oc2ccccc2)cc1 [A40, 1-(3-((6-amino-5-(4-phenoxyphenyl)pyrimidin-4-yl)oxy)phenyl)-1H-pyrrol-2(5H)-one] | < 1000
9 | C=CC(=O)N1CCC(CNc2ncncc2-c2ccc(Oc3ccccc3)cc2)CC1 [A334, 1-(4-(((5-(4-phenoxyphenyl)pyrimidin-4-yl)amino)methyl)piperidin-1-yl)prop-2-en-1-one] | < 100
10 | C=CC(=O)N1C2CCC1CC(CNc1ncnc(N)c1-c1cnn(Cc3ccccc3)c1)C2 (stereo not drawn) [A209, 1-(3-(((6-amino-5-(1-benzyl-1H-pyrazol-4-yl)pyrimidin-4-yl)amino)methyl)-8-azabicyclo[3.2.1]octan-8-yl)prop-2-en-1-one] | < 1000
11 | CC#CC(=O)N1CCC(COc2ncnc(N)c2-c2ccc(Oc3ccccc3)cc2)CC1 [A9, 1-(4-(((6-amino-5-(4-phenoxyphenyl)pyrimidin-4-yl)oxy)methyl)piperidin-1-yl)but-2-yn-1-one] | < 100
12 | CN(C)C/C=C/C(=O)N1CC[C@H](CNc2ncnc(N)c2-c2ccc(Oc3ccccc3)cc2)C1 [A62, (R,E)-1-(3-(((6-amino-5-(4-phenoxyphenyl)pyrimidin-4-yl)amino)methyl)pyrrolidin-1-yl)-4-(dimethylamino)but-2-en-1-one] | < 1000
13 | Nc1ncnc(N[C@@H]2CCN(S(=O)(=O)c3c(F)c(F)c(F)c(F)c3F)C2)c1-c1ccc(Oc2ccccc2)cc1 [A178, (R)-N4-(1-((perfluorophenyl)sulfonyl)pyrrolidin-3-yl)-5-(4-phenoxyphenyl)pyrimidine-4,6-diamine] | < 100
14 | C=CC(=O)N1CCC(CNc2ncnc(N)c2-c2ccc(C(F)(F)F)cc2)CC1 [A81, 1-(4-(((6-amino-5-(4-(trifluoromethyl)phenyl)pyrimidin-4-yl)amino)methyl)piperidin-1-yl)prop-2-en-1-one] | > 1000
15 | CN(C)C/C=C/C(=O)N1CCC(F)(CNc2ncnc(N)c2-c2ccc(Oc3ccccc3)cc2)CC1 [A227, (E)-1-(4-(((6-amino-5-(4-phenoxyphenyl)pyrimidin-4-yl)amino)methyl)-4-fluoropiperidin-1-yl)-4-(dimethylamino)but-2-en-1-one] | < 100
16 | C=CC(=O)Nc1cccc(Oc2ccncc2-c2ccc(Oc3ccccc3)cc2)c1 [A270, N-(3-((3-(4-phenoxyphenyl)pyridin-4-yl)oxy)phenyl)acrylamide] | < 100
17 | CCC(=O)Nc1cccc(-c2cnccc2Oc2ccc(Oc3ccccc3)cc2)c1 [A319, N-(3-(4-(4-phenoxyphenoxy)pyridin-3-yl)phenyl)propionamide] | > 1000
18 | Nc1cccc(Oc2ncnc(N)c2-c2ccc(Oc3ccccc3)cc2)c1 [A305, 6-(3-aminophenoxy)-5-(4-phenoxyphenyl)pyrimidin-4-amine] | > 1000
19 | Nc1ncnc(N[C@@H]2CCCN(S(=O)(=O)c3c(F)c(F)c(F)c(F)c3F)C2)c1-c1ccc(Oc2ccccc2)cc1 [A179, (R)-N4-(1-((perfluorophenyl)sulfonyl)piperidin-3-yl)-5-(4-phenoxyphenyl)pyrimidine-4,6-diamine] | < 1000
20 | C=CC(=O)N1CCC(F)(CNc2ncnc(N)c2-c2ccc(Oc3ccccc3)cc2)CC1 [A225, 1-(4-(((6-amino-5-(4-phenoxyphenyl)pyrimidin-4-yl)amino)methyl)-4-fluoropiperidin-1-yl)prop-2-en-1-one] | < 100

Row | Compound | IC50 [nM]
21 | C=CC(=O)Nc1cccc(Oc2ncnc(N)c2-c2ccc(Oc3ccccc3)nc2)c1 [A268, N-(3-((6-amino-5-(6-phenoxypyridin-3-yl)pyrimidin-4-yl)oxy)phenyl)acrylamide] | < 100
22 | C=CC(=O)N1CCC(CN(C)c2nc(C)nc(N)c2-c2ccc(Oc3ccccc3)cc2)CC1 [A44, 1-(4-(((6-amino-2-methyl-5-(4-phenoxyphenyl)pyrimidin-4-yl)(methyl)amino)methyl)piperidin-1-yl)prop-2-en-1-one] | > 1000
23 | C=CC(=O)N1CC[C@@H](COc2ncnc(N)c2-c2ccc(Oc3ccc(C#N)cc3)cc2)C1 [A201, (R)-4-(4-(4-((1-acryloylpyrrolidin-3-yl)methoxy)-6-aminopyrimidin-5-yl)phenoxy)benzonitrile] | < 1000
24 | C=CC(=O)Nc1cncc(Nc2ncnc(N)c2-c2ccc(Oc3ccccc3)cc2)c1 [A186, N-(5-((6-amino-5-(4-phenoxyphenyl)pyrimidin-4-yl)amino)pyridin-3-yl)acrylamide] | < 100
25 | C=CC(=O)NCC1CCCN(c2ncnc(N)c2-c2ccc(Oc3ccccc3)cc2)C1 (stereo not drawn) [A309, N-((1-(6-amino-5-(4-phenoxyphenyl)pyrimidin-4-yl)piperidin-3-yl)methyl)acrylamide] | > 1000
26 | C=CC(=O)Nc1cccc(Oc2ncnc(N)c2-c2cnn(Cc3cccc(OC)c3)c2)c1 [A198, N-(3-((6-amino-5-(1-(3-methoxybenzyl)-1H-pyrazol-4-yl)pyrimidin-4-yl)oxy)phenyl)acrylamide] | < 100
27 | NCc1cccc(-c2cnccc2Oc2ccc(Oc3ccccc3)cc2)c1 [A316, (3-(4-(4-phenoxyphenoxy)pyridin-3-yl)phenyl)methanamine] | > 1000
28 | CC#CC(=O)N1CC[C@@H](CNc2ncnc(N)c2-c2ccc(Oc3ccccc3)cc2)[C@H](O)C1 [A215, 1-((3S,4S)-4-(((6-amino-5-(4-phenoxyphenyl)pyrimidin-4-yl)amino)methyl)-3-hydroxypiperidin-1-yl)but-2-yn-1-one] | < 100
29 | C=CC(=O)N1CCC(CNc2ncnc(N)c2-c2ccc(OC)c(OC)c2)CC1 [A82, 1-(4-(((6-amino-5-(3,4-dimethoxyphenyl)pyrimidin-4-yl)amino)methyl)piperidin-1-yl)prop-2-en-1-one] | > 1000
30 | CC=CC(=O)c1cccc(CNc2ncnc(N)c2-c2ccc(Oc3ccccc3)cc2)c1 [A142, 1-(3-((6-Amino-5-(4-phenoxyphenyl)-pyrimidin-4-ylamino)-methyl)-phenyl)-but-2-en-1-one] | < 100
31 | CN(C)C/C=C/C(=O)N1CC2(CC(Oc3ncnc(N)c3Cl)C2)C1 [A102, (E)-1-(6-((6-amino-5-chloropyrimidin-4-yl)oxy)-2-azaspiro[3.3]heptan-2-yl)-4-(dimethylamino)but-2-en-1-one] | > 1000
32 | CN(C)C/C=C/C(=O)N[C@H]1C[C@@H](Nc2ncnc(N)c2-c2ccc(Oc3ccccc3)cc2)C1 [A224, (E)-N-(1,3-cis-3-((6-amino-5-(4-phenoxyphenyl)pyrimidin-4-yl)amino)cyclobutyl)-4-(dimethylamino)but-2-enamide] | < 100
33 | C=CC(=O)N1CC2(CC(Oc3ncnc(N)c3-c3ccc(Oc4ccc(C#N)cc4)cc3)C2)C1 [A202, 4-(4-(4-((2-acryloyl-2-azaspiro[3.3]heptan-6-yl)oxy)-6-aminopyrimidin-5-yl)phenoxy)benzonitrile] | < 100
34 | CN(C)C/C=C/C(=O)N1C2CCC1CC(CNc1ncnc(N)c1-c1ccc(Oc3ccccc3)cc1)C2 (stereo not drawn) [A71, (E)-1-(3-(((6-amino-5-(4-phenoxyphenyl)pyrimidin-4-yl)amino)methyl)-8-azabicyclo[3.2.1]octan-8-yl)-4-(dimethylamino)but-2-en-1-one] | < 1000
35 | Nc1cccc(-c2c(N)ncnc2Oc2ccc(Oc3ccccc3)cc2)c1 [A317, 5-(3-aminophenyl)-6-(4-phenoxyphenoxy)pyrimidin-4-amine] | > 1000
36 | C=CC(=O)Nc1cncc(Oc2ncnc(N)c2-c2cnn(Cc3ccccc3)c2)c1 [A189, N-(5-((6-amino-5-(1-benzyl-1H-pyrazol-4-yl)pyrimidin-4-yl)oxy)pyridin-3-yl)acrylamide] | < 100
37 | Nc1ncnc(NCC2CCN(C(=O)C(O)CO)CC2)c1-c1ccc(Oc2ccccc2)cc1 (stereo not drawn) [A56, 1-(4-(((6-amino-5-(4-phenoxyphenyl)pyrimidin-4-yl)amino)methyl)piperidin-1-yl)-2,3-dihydroxypropan-1-one] | > 1000
38 | CCC(=O)N1CCC(CNc2ncnc(N)c2-c2ccc(Oc3ccccc3)cc2)CC1 [A333, 1-(4-(((6-amino-5-(4-phenoxyphenyl)pyrimidin-4-yl)amino)methyl)piperidin-1-yl)propan-1-one] | < 1000
39 | Nc1ncnc(Oc2cccc(NC(=O)/C=C/CN3CCOCC3)c2)c1-c1ccc(Oc2ccccc2)cc1 [A265, (E)-N-(3-((6-amino-5-(4-phenoxyphenyl)pyrimidin-4-yl)oxy)phenyl)-4-morpholinobut-2-enamide] | < 100
